In patent publication US20110112110A1, “ANTIPROLIFERATIVE COMPOUNDS AND THERAPEUTIC USES THEREOF” (UNIVERSITA' DEGLISTUDI DI MILANO- BICOCCA, priority 2008, published 2011):

Each compound was assayed against T1, BaF3 cells transformed with NPM/ALK (Homo sapiens, UniProt Q9UM73) (assay: Tritiated thymidine uptake cell proliferation assay). Settings: read-out: IC50 values on the proliferation of BaF3 cells transformed with NPM/ALK; 72 h incubation, 3[H]-thymidine uptake.
T1 construct: fused on or other part: P06748 (Nucleophosmin)
T1 sequence (Q9UM73 whole entry, change not shown, the tested form may be a part): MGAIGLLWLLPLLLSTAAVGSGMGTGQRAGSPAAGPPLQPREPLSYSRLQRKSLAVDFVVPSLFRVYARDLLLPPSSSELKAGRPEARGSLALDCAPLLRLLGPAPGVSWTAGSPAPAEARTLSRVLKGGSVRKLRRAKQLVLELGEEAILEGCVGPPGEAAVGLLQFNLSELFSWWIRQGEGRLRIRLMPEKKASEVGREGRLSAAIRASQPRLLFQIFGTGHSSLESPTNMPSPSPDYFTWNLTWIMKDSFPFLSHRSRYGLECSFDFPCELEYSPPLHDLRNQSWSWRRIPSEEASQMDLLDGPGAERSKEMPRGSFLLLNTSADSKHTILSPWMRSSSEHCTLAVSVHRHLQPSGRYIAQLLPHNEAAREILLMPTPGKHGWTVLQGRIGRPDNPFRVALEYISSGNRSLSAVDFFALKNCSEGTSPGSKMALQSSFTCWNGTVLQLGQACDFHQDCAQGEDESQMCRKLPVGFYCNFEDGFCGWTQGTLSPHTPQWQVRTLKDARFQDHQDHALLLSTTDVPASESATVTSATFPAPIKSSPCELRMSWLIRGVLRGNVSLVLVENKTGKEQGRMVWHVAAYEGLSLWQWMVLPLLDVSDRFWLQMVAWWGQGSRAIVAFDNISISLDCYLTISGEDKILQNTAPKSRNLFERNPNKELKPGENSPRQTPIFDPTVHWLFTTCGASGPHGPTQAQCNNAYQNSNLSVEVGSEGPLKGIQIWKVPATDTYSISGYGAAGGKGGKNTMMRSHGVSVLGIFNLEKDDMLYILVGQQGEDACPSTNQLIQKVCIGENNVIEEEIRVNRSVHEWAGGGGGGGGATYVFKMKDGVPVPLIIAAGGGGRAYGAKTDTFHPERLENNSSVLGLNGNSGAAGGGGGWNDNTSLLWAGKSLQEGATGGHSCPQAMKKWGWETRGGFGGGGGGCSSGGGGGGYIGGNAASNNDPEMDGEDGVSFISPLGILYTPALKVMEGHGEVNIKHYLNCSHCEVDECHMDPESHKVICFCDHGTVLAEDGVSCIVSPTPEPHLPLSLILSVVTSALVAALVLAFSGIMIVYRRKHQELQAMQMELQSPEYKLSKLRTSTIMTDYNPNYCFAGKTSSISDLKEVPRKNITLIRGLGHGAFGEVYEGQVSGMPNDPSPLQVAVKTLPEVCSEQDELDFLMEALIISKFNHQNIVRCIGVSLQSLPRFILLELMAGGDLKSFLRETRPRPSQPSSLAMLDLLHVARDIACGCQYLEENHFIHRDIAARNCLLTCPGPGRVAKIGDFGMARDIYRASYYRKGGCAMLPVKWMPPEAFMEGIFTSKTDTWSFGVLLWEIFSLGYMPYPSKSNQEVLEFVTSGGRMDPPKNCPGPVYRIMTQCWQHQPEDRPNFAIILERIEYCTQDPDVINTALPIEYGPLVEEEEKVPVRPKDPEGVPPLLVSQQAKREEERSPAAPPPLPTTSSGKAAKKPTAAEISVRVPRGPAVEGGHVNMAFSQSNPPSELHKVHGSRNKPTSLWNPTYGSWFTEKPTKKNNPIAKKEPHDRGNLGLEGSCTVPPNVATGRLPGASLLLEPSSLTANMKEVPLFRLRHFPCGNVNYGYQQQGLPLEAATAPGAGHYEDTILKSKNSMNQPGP
Type: cell-based
Method: Method: Tritiated Thymidine Uptake Cell Proliferation Assay
BaF3 cells, transformed with the oncogenic fusion protein NPM/ALK, were seeded in U-bottomed 96-well plates at 10 000 cells/well in a volume of 100 μL in supplemented medium. Serial dilutions of inhibitors were added to the appropriate wells and volumes adjusted to 200 μL. Controls were treated with the equivalent volume of vehicle, DMSO, alone. Plates were incubated at 37° C. for 72 h. ^3[H-]-thymidine (1 μCi/well) was added for the last 16 h of incubation. Cells were harvested on to glass filters and ^3[H]-thymidine incorporation was measured using a scintillation counter (1430 MicroBeta, Wallac, Turku, Finland).

| Structure (SMILES) | GI50 |
| --- | --- |
| O=C(N/N=C/c1c[nH]c2ccccc12)c1cc(-c2ccc(-c3ccccc3)cc2)[nH]n1 [r66] | 4.8 µM |
| CCOC(=O)c1csc(-c2ccc(-c3csnn3)cc2)n1 [r80] | 31 µM |
| O=C1Nc2ccc(Br)cc2/C1=N/Nc1nc(-c2ccc(-c3ccccc3)cc2)cs1 [r49] | 12 µM |
| CC(C)(C)c1csc(-c2ccc(-c3csnn3)cc2)n1 [r79] | 33 µM |
| CN1CCN(Cc2ccc(C(=O)Nc3nc(-c4ccc5c(c4)Cc4ccccc4-5)cs3)cc2)CC1 [r89] | 36 µM |
| Cc1csc(-c2ccc(-c3csnn3)cc2)n1 [r78] | 7.6 µM |

Each compound was assayed against T2, Recombinant ALK kinase (Homo sapiens, UniProt Q9UM73) (assay: ELISA-based in vitro kinase assay (ALK kinase inhibitory activity)). Settings: not given.
T2 construct: His tag (from pBlueBacHis2C vector); made in house; host or cells: insect cells, baculovirus
T2 sequence (Q9UM73 19-1620): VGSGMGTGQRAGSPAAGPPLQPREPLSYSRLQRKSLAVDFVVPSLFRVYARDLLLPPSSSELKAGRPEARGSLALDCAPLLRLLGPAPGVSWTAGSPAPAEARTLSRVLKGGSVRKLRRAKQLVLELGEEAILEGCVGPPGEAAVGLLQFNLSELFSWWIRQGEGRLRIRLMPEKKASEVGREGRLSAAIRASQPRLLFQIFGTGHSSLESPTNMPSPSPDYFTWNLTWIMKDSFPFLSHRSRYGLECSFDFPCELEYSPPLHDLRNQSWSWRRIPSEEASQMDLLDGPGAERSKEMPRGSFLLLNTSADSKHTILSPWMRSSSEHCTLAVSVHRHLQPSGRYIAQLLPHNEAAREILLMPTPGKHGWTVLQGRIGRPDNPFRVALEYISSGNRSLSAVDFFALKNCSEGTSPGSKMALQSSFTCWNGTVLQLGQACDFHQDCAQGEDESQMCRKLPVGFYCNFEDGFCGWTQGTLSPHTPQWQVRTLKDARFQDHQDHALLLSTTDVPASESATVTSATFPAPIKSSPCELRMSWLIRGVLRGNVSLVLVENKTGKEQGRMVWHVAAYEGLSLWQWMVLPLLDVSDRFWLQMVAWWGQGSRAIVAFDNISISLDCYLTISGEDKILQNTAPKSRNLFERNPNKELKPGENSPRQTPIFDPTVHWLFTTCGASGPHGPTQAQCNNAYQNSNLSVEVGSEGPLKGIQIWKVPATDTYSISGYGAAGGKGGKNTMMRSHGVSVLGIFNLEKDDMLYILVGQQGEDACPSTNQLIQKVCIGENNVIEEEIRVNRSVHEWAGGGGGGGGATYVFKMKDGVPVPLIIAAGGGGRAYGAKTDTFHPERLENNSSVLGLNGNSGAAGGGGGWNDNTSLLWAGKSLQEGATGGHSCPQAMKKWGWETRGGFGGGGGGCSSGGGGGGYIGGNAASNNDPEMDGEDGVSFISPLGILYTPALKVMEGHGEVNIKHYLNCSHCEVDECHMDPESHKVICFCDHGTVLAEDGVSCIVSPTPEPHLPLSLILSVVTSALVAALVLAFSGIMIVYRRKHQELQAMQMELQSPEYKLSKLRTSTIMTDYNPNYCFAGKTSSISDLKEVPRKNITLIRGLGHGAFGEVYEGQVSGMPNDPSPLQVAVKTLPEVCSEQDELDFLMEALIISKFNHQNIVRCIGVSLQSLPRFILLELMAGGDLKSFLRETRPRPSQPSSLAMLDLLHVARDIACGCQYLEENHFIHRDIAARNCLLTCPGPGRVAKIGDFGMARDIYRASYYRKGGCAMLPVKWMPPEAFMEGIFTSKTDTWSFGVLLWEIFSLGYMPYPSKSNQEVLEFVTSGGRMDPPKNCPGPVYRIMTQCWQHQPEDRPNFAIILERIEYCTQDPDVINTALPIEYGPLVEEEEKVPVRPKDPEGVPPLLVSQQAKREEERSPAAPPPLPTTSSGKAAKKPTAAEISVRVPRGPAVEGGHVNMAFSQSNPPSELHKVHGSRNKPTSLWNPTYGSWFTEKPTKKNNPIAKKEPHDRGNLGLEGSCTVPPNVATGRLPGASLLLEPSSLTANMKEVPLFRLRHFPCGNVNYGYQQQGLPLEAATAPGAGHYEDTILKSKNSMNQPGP
Type: biochemical
Method: (§1) Method: ELISA-Based In Vitro Kinase Assay
Recombinant ALK kinase was expressed in […] insect cells using the pBlueBacHis2C baculovirus vector system and purified using an anion exchange Fast Flow Q-sepharose column (Amersham-Pharmacia Biotech) followed by HiTrap™-nickel affinity column (Amersham-Pharmacia Biotech). Purified ALK protein was used to screen inhibitors in the ELISA-based kinase assay. […] Wells were then washed with 200 μl of wash buffer (PBS-Tween 0.05%) and left to dry for at least 2 hours at 37° C. The kinase reaction was performed in the presence of 50 mM Tris pH 7.5, 5 mM MnCl2, 5 mM MgCl2, 0.3 mM ATP and purified rALK in a total volume of 100 μl/well at 30° C. for 15 minutes. For inhibitor testing the reaction mix was preincubated with the inhibitor or solvent control for 10 mins at room temperature before transferring to the ELISA plate. After the reaction wells were washed 5 times with 200 μl of wash buffer. Phosphorylated peptide was detected using 100 μl/well of a mouse monoclonal anti-phosphotyrosine antibody (clone 4G10 UpstateBiotech Ltd) diluted 1:2000 in PBS+4% BSA. After 30 minutes incubation at room temperature the antibody was removed and wells were washed as described above. 100 μl of a secondary antibody (anti-mouse IgG, Horseradish Peroxidase linked whole antibody, Amersham Pharmacia Biotech) diluted 1:1000 in PBS+4% BSA was added to each well and the plate was incubated again for 30 minutes at room temperature before washing as above. The plate was developed using 100 μl/well TMB Substrate Solution (Endogen) and the reaction was stopped by adding an equal volume of H2SO4 0.36 M. Finally, the absorbance was read at 450 nm using an Ultrospec® 300 spectrophotometer (Amersham-Pharmacia Biotech).

| Structure (SMILES) | IC50 |
| --- | --- |
| CN1CCN(Cc2ccc(C(=O)Nc3nc(-c4ccc(-c5csc(NC(=O)c6ccc(CN7CCN(C)CC7)cc6)n5)cc4)cs3)cc2)CC1 [r218, N,N′-(4,4′-(1,4-phenylene)bis(thiazolle-4,2-diyl))bis(4-((4-methylpiperazin-1-yl)methyl)benzamide)] | 1.3 ± 0.5 µM |
| CC(=O)Nc1ncc(-c2ccc(-c3cnc(NC(C)=O)[nH]3)cc2)[nH]1 [r114, N,N′-(5,5′-(1,4-phenylene)bis(1H-imidazole-5,2-diyl))diacetamide] | 0.75 ± 0.13 µM |
| O=C(Nc1ncc(-c2ccc3c(c2)Cc2ccccc2-3)s1)c1ccccc1I [r87, N-(5-(9H-fluoren-7-yl)thiazol-2-yl)-2-iodobenzamide] | 4.3 ± 0.3 µM |

Same assay, conditions: purified rALK, 0.3 mM ATP, ALK peptide substrate, 30° C. 15 minutes; read-out: IC50 values on ALK

| Structure (SMILES) | IC50 |
| --- | --- |
| Nc1nc(-c2ccc3c(c2)Cc2ccccc2-3)cs1 [r84] | 11 ± 1.3 µM |
| O=C(N/N=C/c1c[nH]c2ccccc12)c1cc(-c2ccc(-c3ccccc3)cc2)[nH]n1 [r66] | 3.6 ± 0.5 µM |
| Clc1ccc(-c2csc(-c3ccc(-c4csnn4)cc3)n2)cc1Cl [r35] | 7.7 ± 0.2 µM |
| Cc1ccc(-c2csc(-c3ccc(-c4csnn4)cc3)n2)cc1 [r70] | 5.5 ± 2.3 µM |
| CCOC(=O)c1csc(-c2ccc(-c3csnn3)cc2)n1 [r80] | 48 µM |
| N#C/C(=C\c1cccs1)c1nc(-c2ccc(-c3ccccc3)cc2)cs1 [r67] | 4.7 ± 0.7 µM |
| O=[N+]([O-])c1ccc(-c2nc(-c3ccc(-c4csnn4)cc3)no2)cc1 [r75] | 8.8 ± 0.85 µM |
| c1ccc(-c2ccc(-c3csc(-c4ccncc4)n3)cc2)cc1 [r83] | 11.7 µM |
| Cc1ccc(-c2csc(-c3ccc(-c4csnn4)cc3)n2)c(C)c1 [r69] | 9.3 ± 2.9 µM |
| c1cc(-c2nc(-c3ccc4c(c3)OCCCO4)cs2)ccc1-c1csnn1 [r36] | 27 µM |
| O=C1Nc2ccc(Br)cc2/C1=N/Nc1nc(-c2ccc(-c3ccccc3)cc2)cs1 [r49] | 1.5 ± 0.17 µM |
| O=S(=O)(Cc1ccco1)Cc1nc(-c2ccc(-c3ccccc3)cc2)cs1 [r48] | 1.6 ± 0.15 µM |
| CC(C)(C)c1csc(-c2ccc(-c3csnn3)cc2)n1 [r79] | 24 ± 1.5 µM |
| c1ccc2c(-c3ncc(-c4ccc(-c5cnc(-c6cccc7ccccc67)o5)cc4)o3)cccc2c1 [r19] | 1.2 µM |
| COCCCNc1nc(-c2ccc(-c3ccccc3)cc2)cs1 [r43] | 27.3 µM |
| Cc1csc(-c2ccc(-c3csnn3)cc2)n1 [r78] | 103 µM |
| Fc1ccc(-c2csc(-c3ccc(-c4csnn4)cc3)n2)cc1F [r68] | 3.1 ± 0.34 µM |
| Cc1nc(-c2ccc(-c3csc(-c4cnccc4C(F)(F)F)n3)cc2)no1 [r81] | 46.5 µM |

The next lines start with the values.

| IC50 | Structure (SMILES) |
| --- | --- |
| 82 ± 9 µM | Nc1nc(-c2ccc3c(c2)[nH]c2ccccc23)cs1 [r156, 4-(9H-Carbazol-2-yl)-thiazol-2-ylamine] |
| 31 ± 5.7 µM | CN1CCN(C(=O)c2ccc(-c3ccc(-c4ccc(C(=O)N5CCN(C)CC5)o4)cc3)o2)CC1 [r237, (5-{4-[5-(4-Methyl-piperazine-1-carbonyl)-furan-2-yl]-phenyl}-furan-2-yl)-(4-methyl-piperazin-1-yl)-methasone] |
| 17 ± 1.4 µM | O=C(Nc1nc(-c2ccc3c(c2)[nH]c2ccccc23)cs1)c1ccc(-c2ccccc2)cc1 [r169] |
| 21 ± 2.5 µM | Nc1ccc(-c2ccc(-c3cncs3)c(Cl)c2)cn1 [r235, 5-(3-cloro-4-(tiazol-5-il)fenil)piridin-2-ammina] |
| 42 ± 3.3 µM | Nc1nc(-c2ccc(-c3cccnc3)cn2)cs1 [r121] |
| 12 ± 1.2 µM | Clc1cc(-c2cccnc2)ccc1-c1cncs1 [r120, 3-(3-Chloro-4-thiazol-5-yl-phenyl)-pyridine] |
| 2.1 ± 0.7 µM | O=c1[nH]c(-c2ccc3c(c2)[nH]c2ccccc23)cs1 [r233] |
| 3.7 ± 0.5 µM | COc1ncc(-c2ccc(-c3cccnc3)cc2Cl)s1 [r262, 5-(2-cloro-4-(piridin-3-il)fenil)-2-metossitiazolo] |
| 6.7 µM | O=C(Nc1ncc(-c2ccc(-c3cccnc3)cc2Cl)s1)c1ccc(Br)o1 [r128, 5-Bromo-furan-2-carboxylic acid[5-(2-chloro-4-pyridin-3-yl-phenyl)-thiazol-2-yl]-amide] |
| 57 ± 5 µM | c1ccc(-c2ccc(-c3cncs3)nc2)nc1 [r113] |
| 11 ± 0.72 µM | O=C(Nc1nc(-c2ccc(-c3cccnc3)cn2)cs1)c1ccco1 [r124] |
| 4.8 ± 0.7 µM | O=C(Nc1ccc(-c2ccc(-c3ncco3)nc2)cn1)c1ccc(Br)o1 [r200, 5-bromo-N-(5-(6-(oxazol-2-yl)pyridin-3-yl)pyridin-2-yl)furan-2-carboxamide] |
| 37 ± 2.7 µM | O=C(Nc1nc(-c2ccc(-c3cccnc3)cn2)cs1)c1ccccc1 [r122] |
| 10 ± 0.73 µM | O=C(Nc1nc(-c2ccc3c(c2)[nH]c2ccccc23)cs1)c1ccccc1 [r158, N-[4-(9H-Carbazol-2-yl)-thiazol-2-yl]-benzamide] |
| 16 ± 4.8 µM | c1ccc(-c2ccc(-c3csc(N4CCOCC4)n3)cc2)cc1 [r85] |
| 20 ± 2.3 µM | O=C(O)c1ccc(-c2ccc(-c3ccc(C(=O)O)o3)cc2)o1 [r239, 5,5′-(1,4-phenylene)difuran-2-carboxylic acid] |
| 17 ± 1.5 µM | O=C(c1ccc(Br)o1)N(C(=O)c1ccc(Br)o1)c1ccc(-c2ccc(-c3ncco3)nc2)cn1 [r201] |
| 14 ± 1.6 µM | O=C(Nc1nc(-c2ccc3c(c2)[nH]c2ccccc23)cs1)c1ccc(Br)o1 [r170, 5-Bromo-furan-2-carboxylic acid[4-(9H-carbazol-2-yl)-thiazol-2-yl]-amide] |
| 1.3 ± 0.4 µM | c1cc(-c2ccc(-c3ccoc3)cc2)co1 [r236, 1,4-di(furan-3-yl)benzene] |
| 1.3 ± 0.2 µM | CN1CCN(Cc2ccc(C(=O)Nc3nc(-c4ccc5c(c4)Cc4ccccc4-5)cs3)cc2)CC1 [r89] |
| 4.6 µM | CN1CCN(Cc2ccc(C(=O)Nc3ncc(-c4ccc(-c5cccnc5)cc4Cl)s3)cc2)CC1 [r127, N-[5-(2-Chloro-4-pyridin-3-yl-phenyl)-thiazol-2-yl]-4-(4-methyl-piperazin-1-ylmethyl)-benzamide] |
| 27 ± 1.6 µM | Brc1ccccc1-c1ccc(-c2nccs2)nc1 [r116, 5-(2-bromophenyl)-2-(thiazol-2-yl)pyridine] |

The compounds below were run against T3, Recombinant Abl T315I (Homo sapiens, UniProt P00519, T315I) (assay: ELISA-based in vitro kinase assay (Abl T315I mutant kinase inhibitory activity)). Settings: purified Abl T315I, 0.3 mM ATP, peptide substrate.
T3 construct: His tag (from pBlueBacHis2C vector); made in house; host or cells: Sf9 insect cells, baculovirus
Type: biochemical
Method: as §1
Recombinant Abl T315I protein was expressed in Sf9 cells using the pBlueBacHis2C baculovirus expression vector. Abl T315I was purified using an anion exchange Fast Flow Q-sepharose column (Amersham-Pharmacia Biotech) followed by HiTrap™-nickel affinity column (Amersham-Pharmacia Biotech). Purified Abl T3151 was used in the ELISA-based kinase assay to screen inhibitors as described above. The kinase reaction was performed in the presence of 50 mM Tris pH 7.5, 1 mM MnCl2, 5 mM MgCl2, 0.3 mM ATP, peptide substrate ([…]) and purified Abl T315I.

| Structure (SMILES) | IC50 |
| --- | --- |
| CC(=O)Nc1ncc(-c2ccc(-c3cnc(NC(C)=O)[nH]3)cc2)[nH]1 [r114, N,N′-(5,5′-(1,4-phenylene)bis(1H-imidazole-5,2-diyl))diacetamide] | 2.1 µM |
| O=C(Nc1ncc(-c2ccc3c(c2)Cc2ccccc2-3)s1)c1ccccc1I [r87, N-(5-(9H-fluoren-7-yl)thiazol-2-yl)-2-iodobenzamide] | 6.43 ± 0.43 µM |
